The target of this test is T1, human PPARγ2 (Homo sapiens, UniProt P37231).
T1 construct: the amino acids 182 to 505 of human PPARγ2; expressed in transfected cells; host or cells: COST cells (so in the source)
T1 sequence (P37231 182-505): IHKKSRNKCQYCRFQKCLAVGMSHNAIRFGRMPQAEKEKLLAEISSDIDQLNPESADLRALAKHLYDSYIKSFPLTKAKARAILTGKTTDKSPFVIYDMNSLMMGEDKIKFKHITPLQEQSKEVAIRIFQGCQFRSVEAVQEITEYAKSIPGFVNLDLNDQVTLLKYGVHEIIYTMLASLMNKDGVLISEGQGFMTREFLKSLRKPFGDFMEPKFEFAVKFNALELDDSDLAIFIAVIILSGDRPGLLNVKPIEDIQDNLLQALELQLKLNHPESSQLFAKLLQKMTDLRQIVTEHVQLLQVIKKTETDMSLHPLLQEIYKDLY
The test is described as follows: PPARγ activation activity, Gal4-PPARγ2 LBD chimera luciferase transfection assay in COST cells. It is filed as cell-based. To be noted: Gal4 (aa 1-147)/human PPARγ2 LBD (aa 182-505) chimera, luciferase reporter, 16 hours, rosiglitazone (3 to 10 μmol/L) = 100%, read-out: EC50 (50% effective concentration, PPARγ activation). How it is done:
PPARγ Activation Activity
The agonistic activity of the compounds of the invention on PPARγ was measured based on the transfection assay using COST cells (DS Pharma Biomedical Co., Ltd., Osaka, Japan), which are the cell line derived from the kidney of the African green monkey. COST cells were cultured under 5% CO2 concentration, and DMEM medium containing 10% fetal bovine serum, glutamic acid, and antibiotics was used as a medium.
As an expression vector, a chimera in which DNA binding domain of Ga14, which is a yeast transcription factor, and ligand binding domain of human PPARγ2 are fused, i.e., a fused product between the amino acids 1 to 147 of Gal4 transcription factor and the amino acids 182 to 505 of human PPARγ2, was used. Furthermore, as a reporter vector, a firefly luciferase containing five copies of Gal4 recognition sequence in the promoter region was used. Plasmid transfection to the cells was performed according to a method which uses jetPEI (trade name, manufactured by Funakoshi Co., Ltd., Tokyo, Japan). Furthermore, β-galactosidase expression vector was employed as an internal standard.
After the transfection of the cells, the medium was replaced with a DMEM medium (containing 1% serum) added with the test compound, and the cells were further cultured for 16 hours. After that, the luciferase activity and β-galactosidase activity in the cell lysis solution were measured.
For the present test, dimethylsulfoxide (DMSO) was used for dissolution and dilution of the test compounds, and during the cell treatment, the DMSO concentration in DMEM medium (containing 1% serum) was adjusted to 0.1%. As a positive compound, rosiglitazone (trade name, manufactured by ALEXIS Corporation, Switzerland) was used. The percentage (%) of the luciferase activity of the each test compound (1 to 30 μmol/L) was calculated when the luciferase activity of rosiglitazone (3 to 10 μmol/L) is 100% and the luciferase activity in the absence of the test compound is 0%. The 50% effective concentration of the test compound (EC50, 50% effect concentration) was calculated by using SAS Preclinical Package Ver 5.0 (trade name, manufactured by SAS institute Japan Co., Tokyo, Japan), which is a statistical analysis program.
(Reporter assays use an easily measured gene product as a stand-in for the process of interest.)
On to `CCCCc1nc(C)nc(OCC(N)=O)c1Cc1ccc(-c2ccccc2-c2noc(=O)[nH]2)cc1` [Example 3, 2-{{6-butyl-2-methyl-5-{[2′-(5-oxo-4,5-dihydro-1,2,4-oxadiazol-3-yl)-[1,1′-biphenyl]-4-yl]methyl}pyrimidin-4-yl}oxy}acetamide], for which the EC50 was 2.87 µM.
For `CCCCc1nc(C)nc(OCCCC(=O)NCC)c1Cc1ccc(-c2ccccc2-c2noc(=O)[nH]2)cc1` [Example 9, 4-{{6-butyl-2-methyl-5-{[2′-(5-oxo-4,5-dihydro-1,2,4-oxadiazol-3-yl)-[1,1′-biphenyl]-4-yl]methyl}pyrimidin-4-yl}oxy}-N-ethylbutanamide] the value was 2.8 µM; for `CCCCc1nc(C)nc(OCCCC(=O)N(CC)CC)c1Cc1ccc(-c2ccccc2-c2noc(=O)[nH]2)cc1` [Example 10, 4-{{6-butyl-2-methyl-5-{[2′-(5-oxo-4,5-dihydro-1,2,4-oxadiazol-3-yl)-[1,1′-biphenyl]-4-yl]methyl}pyrimidin-4-yl}oxy}-N,N-diethylbutanamide], 1.79 µM.
Under `CCCCc1nc(C)nc(OCCOCC)c1Cc1ccc(-c2ccccc2-c2noc(=O)[nH]2)cc1` [Example 11, 3-{4′-{[4-butyl-6-(2-ethoxyethoxy)-2-methylpyrimidin-5-yl]methyl}-[1,1′-biphenyl]-2-yl}-1,2,4-oxadiazol-5(4H)-one] stands 0.87 µM; under `CCCCc1nc(C)nc(OCCOCCC)c1Cc1ccc(-c2ccccc2-c2noc(=O)[nH]2)cc1` [Example 12, 3-{4′-{[4-butyl-2-methyl-6-(2-propoxyethoxy)pyrimidin-5-yl]methyl}-[1,1′-biphenyl]-2-yl}-1,2,4-oxadiazol-5(4H)-one], 0.57 µM.
For `CCCCc1nc(C)nc(OCCOCCOC)c1Cc1ccc(-c2ccccc2-c2noc(=O)[nH]2)cc1` [Example 13, 3-{4′-{{4-butyl-6-[2-(2-methoxyethoxy)ethoxy]-2-methylpyrimidin-5-yl}methyl}-[1,1′-biphenyl]-2-yl}-1,2,4-oxadiazol-5(4H)-one] the value was 1.6 µM; for `CCCCc1nc(C)nc(OCCOCc2ccccc2)c1Cc1ccc(-c2ccccc2-c2noc(=O)[nH]2)cc1` [Example 14, 3-{4′-{{4-[2-(benzyloxy)ethoxy]-6-butyl-2-methylpyrimidin-5-yl}methyl}-[1,1′-biphenyl]-2-yl}-1,2,4-oxadiazol-5(4H)-one], 0.29 µM.
With `CCCCc1nc(C)nc(OCCOC(C)C)c1Cc1ccc(-c2ccccc2-c2noc(=O)[nH]2)cc1` [Example 16, 3-{4′-{[4-butyl-6-(2-isopropoxyethoxy)-2-methylpyrimidin-5-yl]methyl}-[1,1′-biphenyl]-2-yl}-1,2,4-oxadiazol-5(4H)-one], the EC50 is 0.64 µM.
Under `CCCCc1nc(C)nc(OCCSC)c1Cc1ccc(-c2ccccc2-c2noc(=O)[nH]2)cc1` [Example 17, 3-{4′-{{4-butyl-2-methyl-6-[2-(methylthio)ethoxy]pyrimidin-5-yl}methyl}-[1,1′-biphenyl]-2-yl}-1,2,4-oxadiazol-5(4H)-one] stands 0.41 µM; under `CCCCc1nc(C)nc(OCC(OC)OC)c1Cc1ccc(-c2ccccc2-c2noc(=O)[nH]2)cc1` [Example 19, 3-{4′-{[4-butyl-6-(2,2-dimethoxyethoxy)-2-methylpyrimidin-5-yl]methyl}-[1,1′-biphenyl]-2-yl}-1,2,4-oxadiazol-5(4H)-one], 0.88 µM.
Under `CCCCc1nc(C)nc(OCC(OCC)OCC)c1Cc1ccc(-c2ccccc2-c2noc(=O)[nH]2)cc1` [Example 20, 3-{4′-{[4-butyl-6-(2,2-diethoxyethoxy)-2-methylpyrimidin-5-yl]methyl}-[1,1′-biphenyl]-2-yl}-1,2,4-oxadiazol-5(4H)-one] stands 0.31 µM; under `CCCCc1nc(C)nc(OCC(C)O)c1Cc1ccc(-c2ccccc2-c2noc(=O)[nH]2)cc1` (stereo not shown) [Example 21, 3-{4′-{[4-butyl-6-(2-hydroxypropoxy)-2-methylpyrimidin-5-yl]methyl}-[1,1′-biphenyl]-2-yl}-1,2,4-oxadiazol-5(4H)-one], 0.4 µM.
As for `CCCCc1nc(C)nc(OCCCCOC)c1Cc1ccc(-c2ccccc2-c2noc(=O)[nH]2)cc1` [Example 23, 3-{4′-{[4-butyl-6-(4-methoxybutoxy)-2-methylpyrimidin-5-yl]methyl}-[1,1′-biphenyl]-2-yl}-1,2,4-oxadiazol-5(4H)-one], the EC50 stood at 0.71 µM.
For `CCCCc1nc(C)nc(OCC2OCCO2)c1Cc1ccc(-c2ccccc2-c2noc(=O)[nH]2)cc1` [Example 24, 3-{4′-{{4-[(1,3-dioxolan-2-yl)methoxy]-6-butyl-2-methylpyrimidin-5-yl}methyl}-[1,1′-biphenyl]-2-yl}-1,2,4-oxadiazol-5(4H)-one] the value was 1.38 µM; for `CCCCc1nc(C)nc(OC(C(=O)OC)c2ccccc2)c1Cc1ccc(-c2ccccc2-c2noc(=O)[nH]2)cc1` (stereo not shown) [Example 25, methyl 2-{{6-butyl-2-methyl-5-{[2′-(5-oxo-4,5-dihydro-1,2,4-oxadiazol-3-yl)-[1,1-biphenyl]-4-yl]methyl}pyrimidin-4-yl}oxy}-2-phenylacetate], 0.73 µM.
Under `CCCCc1nc(C)nc(OCC(=O)N2CCCC2)c1Cc1ccc(-c2ccccc2-c2noc(=O)[nH]2)cc1` [Example 29, 3-{4′-{{4-butyl-2-methyl-6-[2-oxo-2-(pyrrolidin-1-yl)ethoxy]pyrimidin-5-yl}methyl}-[1,1′-biphenyl]-2-yl}-1,2,4-oxadiazof-5 (4H)-one] stands 2.08 µM; under `CCCCc1nc(C)nc(OCc2nc(-c3ccc(C)cc3)oc2C)c1Cc1ccc(-c2ccccc2-c2noc(=O)[nH]2)cc1` [Example 32, 3-{4′-{{4-butyl-2-methyl-6-{[5-methyl-2-(p-tolyl)oxazol-4-yl]methoxy}pyrimidin-5-yl}methyl}-[1,1′-biphenyl]-2-yl}-1,2,4-oxadiazol-5(4H)-one], 0.38 µM; under `CCCCc1nc(C)nc(OC2CCC(O)CC2)c1Cc1ccc(-c2ccccc2-c2noc(=O)[nH]2)cc1` (stereo not shown) [Example 34, 3-{4′-{{4-butyl-6-[(4-hydroxycyclohexyl)oxy]-2-methylpyrimidin-5-yl]methyl}-[1,1′-biphenyl]-2-yl}-1,2,4-oxadiazol-5 (4H)-one], 1.36 µM.
For `CCCCc1nc(C)nc(OC2CCC(=O)CC2)c1Cc1ccc(-c2ccccc2-c2noc(=O)[nH]2)cc1` [Example 35, 3-{4′-{{4-butyl-2-methyl-6-[(4-oxocyclohexyl)oxy]pyrimidin-5-yl}methyl}-[1,1′-biphenyl]-2-yl}-1,2,4-oxadiazol-5(4H)-one] the value was 1.53 µM.
Turning to `CCCCc1nc(C)nc(OCCc2ccc(OCCOC)c(OC)c2)c1Cc1ccc(-c2ccccc2-c2noc(=O)[nH]2)cc1` [Example 36, 3-{4′-{{4-butyl-6-[3-methoxy-4-(2-methoxyethoxy)phenethoxy]-2-methylpyrimidin-5-yl}methyl}-[1,1′-biphenyl]-2-yl}-1,2,4-oxadiazol-5 (4H)-one], the EC50 is 0.63 µM.
For `CCCCCc1nc(C)nc(OCCOC)c1Cc1ccc(-c2ccccc2-c2noc(=O)[nH]2)cc1` [Example 37, 3-{4′-{[4-(2-methoxyethoxy)-2-methyl-6-pentylpyrimidin-5-yl]methyl}-[1,1′-biphenyl]-2-yl}-1,2,4-oxadiazol-5(4H)-one] the value was 0.84 µM.
In the case of `CCCc1nc2c(C)cc(-c3nc4ccccc4n3C)cc2n1Cc1ccc(-c2ccccc2C(=O)O)cc1` [telmisartan, reference compound], the EC50 was 1 to 5 µM.

(Values after patent US20120322819A1, “COMPOUND CONTAINING A NOVEL 4-ALKOXYPYRIMIDINE STRUCTURE AND MEDICINE CONTAINING SAME” (KOWA COMPANY, LTD., priority 2010, published 2012).)
